The target of the experiment is T1, Recombinant human JARID1B/KDM5B (Homo sapiens, UniProt Q9UGL1).
T1 construct: purchased Active Motif 31432; host or cells: Sf9 insect cells
As to the kind of experiment: LANCE Ultra TR-FRET demethylase assay with FLAG-tagged JARID1B. Format: biochemical. Particulars: 100 nM compound; 500 nM biotinylated H3K4me3 peptide substrate. The method, boiled down: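 Sf9-expressed N-FLAG full-length JARID1B (10–30 nM) preincubated 5 min with compound at 20, 1 or 0.1 uM (1% DMSO), then 500 nM biotin-H3K4me3 peptide, 500 uM 2-OG, 25 uM Fe(II), 2 mM ascorbate added; 30 min at room temperature in Hepes pH 7.5. H3K4me2/1 product read by TR-FRET 665/590 ratio.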

T1 sequence (Q9UGL1 whole entry): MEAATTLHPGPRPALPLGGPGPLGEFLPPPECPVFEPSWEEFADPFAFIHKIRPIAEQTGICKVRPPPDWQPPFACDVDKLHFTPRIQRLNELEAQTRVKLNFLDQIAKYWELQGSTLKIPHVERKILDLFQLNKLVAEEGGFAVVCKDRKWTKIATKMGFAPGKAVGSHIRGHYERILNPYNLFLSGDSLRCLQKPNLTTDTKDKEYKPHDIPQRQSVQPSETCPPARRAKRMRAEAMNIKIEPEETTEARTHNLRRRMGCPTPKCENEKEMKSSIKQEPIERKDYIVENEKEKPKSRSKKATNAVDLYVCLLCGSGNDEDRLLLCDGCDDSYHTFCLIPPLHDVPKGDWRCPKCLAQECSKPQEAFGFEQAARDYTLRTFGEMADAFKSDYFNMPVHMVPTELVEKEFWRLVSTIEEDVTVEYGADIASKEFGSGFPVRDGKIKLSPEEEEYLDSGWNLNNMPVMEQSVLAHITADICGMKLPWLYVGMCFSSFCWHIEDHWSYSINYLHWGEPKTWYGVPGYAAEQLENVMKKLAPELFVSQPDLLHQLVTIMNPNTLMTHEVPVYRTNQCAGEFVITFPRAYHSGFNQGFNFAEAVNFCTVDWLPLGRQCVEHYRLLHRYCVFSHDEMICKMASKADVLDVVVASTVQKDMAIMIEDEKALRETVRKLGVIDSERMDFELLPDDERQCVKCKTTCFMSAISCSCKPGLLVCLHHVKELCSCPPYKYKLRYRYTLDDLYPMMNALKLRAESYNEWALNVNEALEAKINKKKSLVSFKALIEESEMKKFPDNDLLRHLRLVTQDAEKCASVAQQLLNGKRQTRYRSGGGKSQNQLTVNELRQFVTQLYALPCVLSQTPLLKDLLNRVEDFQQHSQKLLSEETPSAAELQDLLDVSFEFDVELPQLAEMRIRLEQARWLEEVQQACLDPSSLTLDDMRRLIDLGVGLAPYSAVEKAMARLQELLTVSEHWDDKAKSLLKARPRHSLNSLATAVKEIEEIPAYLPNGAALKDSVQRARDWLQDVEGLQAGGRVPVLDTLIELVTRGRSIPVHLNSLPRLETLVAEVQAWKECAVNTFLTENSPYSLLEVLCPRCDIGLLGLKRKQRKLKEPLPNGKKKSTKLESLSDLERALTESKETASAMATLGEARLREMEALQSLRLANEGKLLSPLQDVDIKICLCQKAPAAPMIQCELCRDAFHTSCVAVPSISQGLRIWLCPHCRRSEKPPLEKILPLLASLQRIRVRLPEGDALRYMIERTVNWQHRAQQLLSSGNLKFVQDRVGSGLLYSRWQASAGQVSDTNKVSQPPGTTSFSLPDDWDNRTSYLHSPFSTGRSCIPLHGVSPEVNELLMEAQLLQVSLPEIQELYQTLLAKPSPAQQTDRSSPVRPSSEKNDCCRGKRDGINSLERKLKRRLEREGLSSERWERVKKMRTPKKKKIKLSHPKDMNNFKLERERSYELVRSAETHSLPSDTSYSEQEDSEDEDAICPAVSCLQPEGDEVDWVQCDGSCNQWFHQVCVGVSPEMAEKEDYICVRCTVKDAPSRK

As to `O=c1[nH]c(C2CCCC2)nc2c(CNCC3CCNCC3)nccc12` [Example 191, 2-cyclopentyl-8-(((piperidin-4-ylmethyl)amino)methyl)pyrido[3,4-d]pyrimidin-4(3H)-one], the inhibition – broadly, the relative decrease from the control value, in per cent – at 0.1 µM was less than 20%.
Regarding `CN1CCC(CNCc2nccc3c(=O)[nH]c(C4CCCC4)nc23)CC1` [Example 192, 2-cyclopentyl-8-((((1-methylpiperidin-4-yl)methyl)amino)methyl)pyrido[3,4-d]pyrimidin-4(3H)-one], the inhibition at 0.1 µM was less than 20%.
With `O=c1[nH]c(C2CCCO2)nc2c(CNCC3CCNCC3)nccc12` (stereo not shown) [Example 193, 8-(((piperidin-4-ylmethyl)amino)methyl)-2-(tetrahydrofuran-2-yl)pyrido[3,4-d]pyrimidin-4(3H)-one] the figure was less than 20%; with `CN1CCC(CNCc2nccc3c(=O)[nH]c(C4CCCO4)nc23)CC1` (stereo not shown) [Example 194, 8-((((1-methylpiperidin-4-yl)methyl)amino)methyl)-2-(tetrahydrofuran-2-yl)pyrido[3,4-d]pyrimidin-4(3H)-one], less than 20%; with `O=c1[nH]c(C2CCOC2)nc2c(CNCC3CCNCC3)nccc12` (stereo not shown) [Example 195, 8-(((piperidin-4-ylmethyl)amino)methyl)-2-(tetrahydrofuran-3-yl)pyrido[3,4-d]pyrimidin-4(3H)-one], less than 20%.
Turning to `CN1CCC(CNCc2nccc3c(=O)[nH]c(C4CCOC4)nc23)CC1` (stereo not shown) [Example 196, 8-((((1-methylpiperidin-4-yl)methyl)amino)methyl)-2-(tetrahydrofuran-3-yl)pyrido[3,4-d]pyrimidin-4(3H)-one], the inhibition at 0.1 µM was less than 20%.
Regarding `O=c1[nH]c(C2Cc3ccccc3O2)nc2c(CNCC3CCNCC3)nccc12` (stereo not shown) [Example 197, 2-(2,3-dihydrobenzofuran-2-yl)-8-(((piperidin-4-ylmethyl)amino)methyl)pyrido[3,4-d]pyrimidin-4(3H)-one], the inhibition at 0.1 µM was in the range of 20 to 50%.
For the compound `CN1CCC(CNCc2nccc3c(=O)[nH]c(C4Cc5ccccc5O4)nc23)CC1` (stereo not shown) [Example 198, 2-(2,3-dihydrobenzofuran-2-yl)-8-((((1-methylpiperidin-4-yl)methyl)amino)methyl)pyrido[3,4-d]pyrimidin-4(3H)-one], the inhibition at 0.1 µM is 20 to 50%.
Consider `O=c1[nH]c(C2CCc3ccccc3O2)nc2c(CNCC3CCNCC3)nccc12` (stereo not shown) [Example 199, 2-(chroman-2-yl)-8-(((piperidin-4-ylmethyl)amino)methyl)pyrido[3,4-d]pyrimidin-4(3H)-one], for which the inhibition at 0.1 µM is less than 20%.
As for `CN1CCC(CNCc2nccc3c(=O)[nH]c(C4CCc5ccccc5O4)nc23)CC1` (stereo not shown) [Example 200, 2-(chroman-2-yl)-8-((((1-methylpiperidin-4-yl)methyl)amino)methyl)pyrido[3,4-d]pyrimidin-4(3H)-one], the inhibition at 0.1 µM fell in the range of 20 to 50%.
On to `CN1CCC(CNCc2nccc3c(=O)[nH]c(C4Cc5ccccc5C4)nc23)CC1` [Example 201, 2-(2,3-dihydro-1H-inden-2-yl)-8-((((1-methylpiperidin-4-yl)methyl)amino)methyl)pyrido[3,4-d]pyrimidin-4(3H)-one], for which the inhibition at 0.1 µM was less than 20%.
In the case of `O=c1[nH]c(COCc2ccccc2)nc2c(CNCC3CCNCC3)nccc12` [Example 202, 2-((benzyloxy)methyl)-8-(((piperidin-4-ylmethyl)amino)methyl)pyrido[3,4-d]pyrimidin-4(3H)-one], the inhibition at 0.1 µM is 20 to 50%.
On to `CN1CCC(CNCc2nccc3c(=O)[nH]c(COCc4ccccc4)nc23)CC1` [Example 203, 2-((benzyloxy)methyl)-8-((((1-methylpiperidin-4-yl)methyl)amino)methyl)pyrido[3,4-d]pyrimidin-4(3H)-one], for which the inhibition at 0.1 µM is greater than 50%.
Take `O=c1[nH]c(COCc2ccccc2)nc2c(CNC[C@H]3CCNC3)nccc12` [Example 204, (S)-2-((benzyloxy)methyl)-8-(((pyrrolidin-3-ylmethyl)amino)methyl)pyrido[3,4-d]pyrimidin-4(3H)-one]: the inhibition at 0.1 µM is 20 to 50%.
For the compound `CN1CCC(CNCc2nccc3c(=O)[nH]c(COCc4ccccc4)nc23)C1` (stereo not shown) [Example 205, 2-((benzyloxy)methyl)-8-((((1-methylpyrrolidin-3-yl)methyl)amino)methyl)pyrido[3,4-d]pyrimidin-4(3H)-one], the inhibition at 0.1 µM lay within 20 to 50%.
In the case of `O=c1[nH]c(COCc2cccc(Cl)c2)nc2c(CNCC3CCNCC3)nccc12` [Example 206, 2-(((3-chlorobenzyl)oxy)methyl)-8-(((piperidin-4-ylmethyl)amino)methyl)pyrido[3,4-d]pyrimidin-4(3H)-one], the inhibition at 0.1 µM was greater than 50%.
On to `CN1CCC(CNCc2nccc3c(=O)[nH]c(COCc4cccc(Cl)c4)nc23)CC1` [Example 207, 2-(((3-chlorobenzyl)oxy)methyl)-8-((((1-methylpiperidin-4-yl)methyl)amino)methyl)pyrido[3,4-d]pyrimidin-4(3H)-one], for which the inhibition at 0.1 µM was greater than 50%.
In the case of `O=c1[nH]c(COCc2cccc(Cl)c2)nc2c(CNC[C@H]3CCNC3)nccc12` [Example 208, (S)-2-(((3-chlorobenzyl)oxy)methyl)-8-(((pyrrolidin-3-ylmethyl)amino)methyl)pyrido[3,4-d]pyrimidin-4(3H)-one] it was greater than 50%; in that of `O=c1[nH]c(COCc2ccccc2Cl)nc2c(CNCC3CCNCC3)nccc12` [Example 209, 2-(((2-chlorobenzyl)oxy)methyl)-8-(((piperidin-4-ylmethyl)amino)methyl)pyrido[3,4-d]pyrimidin-4(3H)-one], greater than 50%.
With `CN1CCC(CNCc2nccc3c(=O)[nH]c(COCc4ccccc4Cl)nc23)CC1` [Example 210, 2-(((2-chlorobenzyl)oxy)methyl)-8-((((1-methylpiperidin-4-yl)methyl)amino)methyl)pyrido[3,4-d]pyrimidin-4(3H)-one] the figure was greater than 50%.
With `CC(Oc1ccc(Cc2ccccc2)cc1)c1nc2c(CNCC3CCN(C)CC3)nccc2c(=O)[nH]1` (stereo not shown) [Example 211, 2-(1-(4-benzylphenoxy)ethyl)-8-((((1-methylpiperidin-4-yl)methyl)amino)methyl)pyrido[3,4-d]pyrimidin-4(3H)-one] the figure was less than 20%.
Turning to `CC(Oc1ccc(Cc2ccccc2)cc1)c1nc2c(CNCC3CCNCC3)nccc2c(=O)[nH]1` (stereo not shown) [Example 212, 2-(1-(4-benzylphenoxy)ethyl)-8-(((piperidin-4-ylmethyl)amino)methyl)pyrido[3,4-d]pyrimidin-4(3H)-one], the inhibition at 0.1 µM lay in the range of 20 to 50%.
With `CC(Oc1ccc(Cc2ccccc2)cc1)c1nc2c(CNC[C@H]3CCNC3)nccc2c(=O)[nH]1` (stereo partly drawn) [Example 213, 2-(1-(4-benzylphenoxy)ethyl)-8-(((((S)-pyrrolidin-3-yl)methyl)amino)methyl)pyrido[3,4-d]pyrimidin-4(3H)-one] the figure was 20 to 50%.
Consider `CC(Oc1ccc(Cc2ccccc2)cc1)c1nc2c(CNCC3CCN(C)C3)nccc2c(=O)[nH]1` (stereo not shown) [Example 214, 2-(1-(4-benzylphenoxy)ethyl)-8-((((1-methylpyrrolidin-3-yl)methyl)amino)methyl)pyrido[3,4-d]pyrimidin-4(3H)-one], for which the inhibition at 0.1 µM was 20 to 50%.
On to `C[C@@H](Oc1ccc(Cc2ccccc2)cc1)c1nc2c(CNCC3CCNCC3)nccc2c(=O)[nH]1` [Example 215, (R)-2-(1-(4-benzylphenoxy)ethyl)-8-(((piperidin-4-ylmethyl)amino)methyl)pyrido[3,4-d]pyrimidin-4(3H)-one], for which the inhibition at 0.1 µM is greater than 50%.

(Values after patent US9834550B2, “Pyridopyrimidinone compounds for modulating the catalytic activity of histone lysine demethylases (KDMs)” (Dong-A Socio Holdings Co., Ltd., priority 2014, dated 2017).)
